Results published in article PMC3527569, “Anti-Inflammatory and Vasoprotective Activity of a Retroviral-Derived Peptide, Homologous to Human Endogenous Retroviruses: Endothelial Cell Effects” (PLoS ONE, 2012).
Values joined by “and” are separate entries in the source; they are usually repeats but may differ in a detail not shown here. Equal values may be shown once. “Also recorded” adds a separate entry of the source. Where a SMILES comes first, the peptide text is derived from it. Bridges are numbered along the chain shown (N, C = ends). Roman numbers before positions name the chains, in order.

Assays:
HUVEC = experiment: TNF-α-induced necrosis in HUVEC (Cell Death Detection ELISA, supernatant); assay type: cell-based, human; details: HUVEC pretreated 3 h with 6.25-50 µM peptide, TNF-α 100 ng/ml, overnight
Description: Apoptosis was measured in HUVEC using the Cell Death Detection ELISA^PLUS kit (Roche Diagnostics; Indianapolis, IN) according to the manufacturer's instructions. This assay is based on a quantitative sandwich-enzyme-immunoassay using mouse monoclonal antibodies directed against both DNA and histones, respectively. It allows the specific determination of mono- and oligonucleosomes in the cytoplasmic fraction of cell lysates (apoptosis) and in the supernatant of dying cells (necrosis). The apoptotic index (AI) was calculated as
where treatment refers to use of a known apoptosis- or necrosis-inducing agent (staurosporine, TNF-α).

TNF-α = experiment: Plasma TNF-α in mouse carrageenan DIC model (ELISA); assay type: in vivo, mouse (CD-1); details: 1 mg (245 nmol) i.p. 18 h before carrageenan, over 24 h, groups of 5 mice
Description: (§1) Groups of 10 male CD-1 mice were injected i.p. with 0.25 ml of either vehicle (PBS) or peptide in vehicle at varying times prior to the i.p. injection of 1.0 ml of carrageenan (0.45% [w/v] in PBS; Sigma). In experiments where serum cytokine levels were determined, groups of 5 mice were euthanized at 1-, 2-, 4-, 8-, and 24-h post injection of carrageenan, blood collected by cardiac puncture into heparinized syringes, and the resultant plasma stored at −80°C until assayed by ELISA. […] At 1-, 2-, 4-, and 24-h post injection of carrageenan, five mice from each group were euthanized and heparinized blood samples collected from the heart using heparinized syringes for subsequent determinations of WBC (white blood cell) counts, RBC (red blood cell) counts, or PLT (platelet) counts.
(§2) Cytokine measurements of serum samples from MN10021-treated mice were performed by sandwich ELISA assays (R & D systems) according to the manufacturer’s instructions for use of its kits with sera samples.

[1] = mice; data not shown
[2] = system: blood leukocyte and platelet counts; experiment: Blood cell counts (WBC, PLT) in mouse carrageenan DIC model; assay type: in vivo, mouse (CD-1); details: 245 nmol i.p. 18 h before carrageenan
Description: as §1

dermal vascular leak = experiment: Reverse passive Arthus reaction, dermal vascular leak; assay type: in vivo, guinea pig (Hartley)
Description: Eighteen hours later both flanks of the animals were shaved and 6.25 or 12.5 µl of rabbit anti-BSA antiserum was injected intradermally (i.d.) at two sites, one on each flank. The animals were then injected i.v. with 1 ml of PBS containing BSA (1 mg/ml) and Evans Blue dye (2 mg/ml; Sigma; St. Louis, MO). Six hours later the animals were euthanized, the skin removed, and the level of induration determined as the diameter (mm) of the extravasation for each site measured on the ventral surface of the skin.

[3] = reason why binding studies were performed at 37°C
IL-6 = experiment: Plasma IL-6 in mouse carrageenan DIC model (ELISA); assay type: in vivo, mouse (CD-1); details: 1 mg (245 nmol) i.p. 18 h before carrageenan, peak at 4 h
Description: as §1, §2

systolic blood pressure = experiment: SHR rat hypertension model (tail cuff); assay type: in vivo
Description: As part of a general pharmacological screen, MN10021 was evaluated in a rat model of hypertension by MDS-PanLabs (Bothell, WA). […] Blood pressure measurements were made by tail cuff at 1, 2, and 4 h post administration of test compounds. A decrease of ≥10% of the baseline systolic blood pressure is considered significant in this assay.

[4] = system: iNOS (inducible nitric oxide synthase) mRNA; experiment: RT-PCR of iNOS mRNA in HUVEC; assay type: cell-based, human; details: 50 µM peptide, 3 h, 37°C, quiescent HUVEC, RT-PCR
Description: (§3) Cells were cultured with various concentrations of test materials, either with or without stimulus, for varying times. The cells were collected, washed and total RNA isolated using the RNeasy Mini Kit (Qiagen; Valencia, CA). Following isolation the RNA was treated with 7 units of DNase I according to the RNase-Free DNase Set (Qiagen; Valencia, CA) protocol. Using these procedures we usually obtained ∼50 µg of total RNA/10^7 cells. cDNA was prepared from the isolated mRNAs and RT-PCR performed on the target cytokines/chemokines/growth factors using appropriate primer pairs and a control primer pair for β-actin (all from R & D Systems; Minneapolis, MN). RT-PCR was generally performed for 30 cycles for β-actin and 35–45 cycles for iNOS and VEGF.

[5] = system: endothelial nitric oxide synthase (eNOS) mRNA; experiment: RT-PCR of eNOS mRNA in HUVEC; assay type: cell-based, human; details: data not shown
Description: as §3

carrageenan-induced DIC = experiment: Mouse carrageenan-induced DIC model, lethality; assay type: in vivo, mouse (CD-1)
Description: as §1

dengue virus = experiment: Vascular leak in liver of mice injected with dengue virus; parameters: species or system mouse; details: 1 µg intraperitoneal; dengue virus i.v.; preliminary in vivo studies
paw inflammation = experiment: Carrageenan-induced paw inflammation in mice; assay type: in vivo, mouse; details: compared with peritonitis model; data not shown
[6] = system: inflammatory accumulation of monocytes/macrophages; experiment: Mouse NaIO4-induced inflammatory peritonitis model; assay type: in vivo, mouse (CD-1); details: doses as high as 40 µg (10 nmol)
Description: Effects of test compounds on the inflammatory accumulation of monocytes/macrophages or neutrophils in vivo were determined using a mouse peritonitis model. Briefly, groups of five 6–8 week old CD-1 outbred mice (Charles River; Raleigh, NC) were injected intraperitoneally (i.p.) with 1.0 ml of a sterile inflammatory stimulus (NaIO4; 5 mM in sterile isotonic saline; Sigma; St. Louis, MO). This procedure results in a dramatic accumulation of neutrophils in the peritoneal cavity which peaks at 6–8 h post injection, followed by an accumulation of monocytes/macrophages which peaks at 48–72 h post injection. Mice were euthanized by CO2 asphyxiation at either 6 h (for neutrophils) or 48 h (for monocyte/macrophages), the peritoneal cavities lavaged with two 10-ml washes of heparinized (10 u/ml; Sigma; St. Louis, MO) HBSS containing 0.1% (w/v) BSA, the washes pooled, and total and differential cells counts determined for each pooled cell suspension. Each test material was evaluated in a group of five mice, each of which was injected subcutaneously in the thigh with 0.2 ml of test material in HBSS 24 h prior to the i.p. injection of the inflammatory stimulus.

[7] = 100 mg/kg orally (gavage), groups of 3 SHR rats, tail cuff, vs 0 h value

Compound: CC(C)C[C@H](NC(=O)CNC(=O)CNC(=O)[C@H](CCC(=O)O)NC(=O)[C@H](CCCCN)NC(=O)[C@H](CC(C)C)NC(=O)[C@H](Cc1ccccc1)NC(=O)[C@H](CC(C)C)NC(=O)[C@H](CC(C)C)NC(=O)[C@H](CC(=O)O)NC(=O)[C@H](CC(C)C)NC(=O)CNC(=O)[C@H](CCCNC(=N)N)NC(=O)[C@H](CCCNC(=N)N)NC(=O)[C@H](CC(N)=O)NC(=O)[C@H](CCC(N)=O)NC(=O)[C@@H](N)CC(C)C)C(=O)N[C@@H](CSSC[C@H](NC(=O)[C@H](CC(C)C)NC(=O)CNC(=O)CNC(=O)[C@H](CCC(=O)O)NC(=O)[C@H](CCCCN)NC(=O)[C@H](CC(C)C)NC(=O)[C@H](Cc1ccccc1)NC(=O)[C@H](CC(C)C)NC(=O)[C@H](CC(C)C)NC(=O)[C@H](CC(=O)O)NC(=O)[C@H](CC(C)C)NC(=O)CNC(=O)[C@H](CCCNC(=N)N)NC(=O)[C@H](CCCNC(=N)N)NC(=O)[C@H](CC(N)=O)NC(=O)[C@H](CCC(N)=O)NC(=O)[C@@H](N)CC(C)C)C(=O)O)C(=O)O [MN10021] (I: H-LQNRRGLDLLFLKEGGLC-OH / II: H-LQNRRGLDLLFLKEGGLC-OH; disulfide I:18-II:18)
- protection against TNF-α-induced necrosis (HUVEC): significant protection; also recorded: block almost completely
- block of carrageenan-induced increase in plasma TNF-α (TNF-α): ~85% and > 80%
- time to detection in the blood after s.c. injection [1]: ≤ 15 min
- effect on carrageenan-induced leukocytosis (WBC) [2]: prevented much of the leukocytosis
- PLT count of treated mice, percent of normal ([2]; over the 24 h period): approximately 50%
- block of vascular leak, challenge 6.25 µl anti-BSA (dermal vascular leak; 250 or 500 µg s.c. 18 h before challenge, Evans Blue extravasation diameter at 6 h): completely blocked
- block of vascular leak, challenge 12.5 µl anti-BSA (dermal vascular leak; only the highest dose (500 µg) s.c. 18 h before challenge, Evans Blue extravasation at 6 h): completely blocked
- solubility at lower temperatures [3]: insolubility
- block of peak plasma IL-6 response (IL-6): about 50%
- decreases in blood pressure at the three time points (1, 2, 4 h) (systolic blood pressure; 30 mg/kg orally, data not shown): 3–4%
- decrease in blood pressure at 1 h (systolic blood pressure; [7]): 12%
- decrease in blood pressure at 2 h (systolic blood pressure; [7]): 15%
- decrease in blood pressure at 4 h (systolic blood pressure; [7]): 13%
- lowering of blood pressure within 1 h (systolic blood pressure; orally-administered (abstract)): 10–15%
- induction of mRNA for iNOS in HUVEC [4]: induces mRNA for iNOS
- effect on expression of mRNA for eNOS [5]: Neither MN10021 nor DUK0005 affected
- protection in lethal model of carrageenan-induced DIC (carrageenan-induced DIC; 73 nmol): completely protects
- mice protected from lethal carrageenan (carrageenan-induced DIC; 30 µg (7 nmol) i.p. 18 h prior to carrageenan, groups of 10 CD-1 mice): approximately 50%
- survival time after carrageenan (carrageenan-induced DIC; 1 mg (245 nmol) i.p. before i.p. carrageenan, 120 h longest time observed): at least 120 h
- effect on vascular leak in the liver of dengue virus-injected mice (dengue virus): inhibit the vascular leak
- activity in carrageenan-induced paw inflammation (paw inflammation): equally active

Compound: H-LGGEKLFLLDGRNQLC-OH (disulfide (positions not given here)) [MN20050]
- anti-inflammatory activity in peritonitis model [6]: no anti-inflammatory activity
